{"source": "patent US7851474B2", "about": "“Dipiperazinyl ketones and related analogues” (Neurogen Corporation, priority 2005, dated 2010)"}
{"target": "T1, chimeric human H3 receptor (Homo sapiens, UniProt Q9Y5N1, E19D)", "T1 construct": "made in house; host or cells: Sf9 insect cells (baculovirus infection); P2 membrane preparation", "T1 sequence (Q9Y5N1 with tags, fused parts or gaps E19D)": "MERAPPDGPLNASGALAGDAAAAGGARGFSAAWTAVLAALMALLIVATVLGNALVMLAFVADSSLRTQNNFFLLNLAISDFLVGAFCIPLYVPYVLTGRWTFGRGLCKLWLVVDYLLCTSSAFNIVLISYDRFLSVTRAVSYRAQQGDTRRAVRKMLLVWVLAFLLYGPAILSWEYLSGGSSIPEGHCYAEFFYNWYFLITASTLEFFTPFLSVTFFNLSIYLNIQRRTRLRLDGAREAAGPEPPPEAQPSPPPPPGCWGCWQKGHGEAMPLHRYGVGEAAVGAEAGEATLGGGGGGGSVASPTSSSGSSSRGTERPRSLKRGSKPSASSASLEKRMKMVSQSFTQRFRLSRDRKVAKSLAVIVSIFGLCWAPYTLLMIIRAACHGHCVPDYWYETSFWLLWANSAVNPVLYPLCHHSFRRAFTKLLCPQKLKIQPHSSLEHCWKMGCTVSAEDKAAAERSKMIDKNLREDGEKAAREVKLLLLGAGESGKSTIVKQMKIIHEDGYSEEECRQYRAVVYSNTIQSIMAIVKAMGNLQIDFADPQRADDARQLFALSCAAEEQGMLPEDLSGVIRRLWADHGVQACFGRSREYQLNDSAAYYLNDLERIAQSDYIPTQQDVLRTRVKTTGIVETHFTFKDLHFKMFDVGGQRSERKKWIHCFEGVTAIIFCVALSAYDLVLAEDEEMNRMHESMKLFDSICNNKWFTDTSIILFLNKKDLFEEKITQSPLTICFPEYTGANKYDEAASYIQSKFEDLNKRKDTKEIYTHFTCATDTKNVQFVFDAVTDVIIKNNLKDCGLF", "experiment": "Chimeric human H3 receptor screening GTP binding assay (inhibition of histamine-stimulated GTP-gamma35S binding, Example 8)", "format": "biochemical", "conditions": "1 h; \"+\" in Ki of Table II; assay of Example 8; read-out: percent inhibition of agonist-induced GTP-gammaS binding to H3", "outline": "(§1)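 Sf9 membranes co-expressing the chimeric receptor and a heterotrimeric G-protein (35 μg protein) in Tris pH 7.4 buffer with 10 μM GDP; compound at 4 μM plus 1 μM histamine, 125 pM GTP-gamma35S, 60 min at room temperature. Filter-bound radioactivity read; non-specific binding defined with 10 uM GTP-gammaS; percent inhibition of histamine signal.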", "units": {"inhibition at 4 µM": "%"}}
{"smiles": "CCOc1ccc(CC(=O)N2CCN(CC(=O)N3CCN(C4CCC4)CC3)CC2)cc1OC", "note": "[Compound 557, 1-cyclobutyl-4-({4-[(4-ethoxy-3-methoxyphenyl)acetyl]piperazin-1-yl}acetyl)piperazine]", "inhibition at 4 µM": "> 90"}
{"smiles": "O=C(COc1ccc(F)cc1)N1CCN(CC(=O)N2CCN(C3CCC3)CC2)CC1", "note": "[Compound 558, 1-cyclobutyl-4-({4-[(4-fluorophenoxy)acetyl]piperazin-1-yl}acetyl)piperazine]", "inhibition at 4 µM": "> 90"}
{"smiles": "O=C(Cc1ccc(F)cc1)N1CCN(CC(=O)N2CCN(C3CCC3)CC2)CC1", "note": "[Compound 559, 1-cyclobutyl-4-({4-[(4-fluorophenyl)acetyl]piperazin-1-yl}acetyl)piperazine]", "inhibition at 4 µM": "> 90"}
{"smiles": "CC(C)c1ccc(CC(=O)N2CCN(CC(=O)N3CCN(C4CCC4)CC3)CC2)cc1", "note": "[Compound 560, 1-cyclobutyl-4-({4-[(4-isopropylphenyl)acetyl]piperazin-1-yl}acetyl)piperazine]", "inhibition at 4 µM": "> 90"}
{"smiles": "COc1cscc1C(=O)N1CCN(CC(=O)N2CCN(C3CCC3)CC2)CC1", "note": "[Compound 561, 1-cyclobutyl-4-({4-[(4-methoxy-3-thienyl)carbonyl]piperazin-1-yl}acetyl)piperazine]", "inhibition at 4 µM": "> 90"}
{"smiles": "COc1ccc(OCC(=O)N2CCN(CC(=O)N3CCN(C4CCC4)CC3)CC2)cc1", "note": "[Compound 562, 1-cyclobutyl-4-({4-[(4-methoxyphenoxy)acetyl]piperazin-1-yl}acetyl)piperazine]", "inhibition at 4 µM": "> 90"}
{"smiles": "COc1ccc(CC(=O)N2CCN(CC(=O)N3CCN(C4CCC4)CC3)CC2)cc1", "note": "[Compound 563, 1-cyclobutyl-4-({4-[(4-methoxyphenyl)acetyl]piperazin-1-yl}acetyl)piperazine]", "inhibition at 4 µM": "> 90"}
{"smiles": "Cc1nnsc1C(=O)N1CCN(CC(=O)N2CCN(C3CCC3)CC2)CC1", "note": "[Compound 564, 1-cyclobutyl-4-({4-[(4-methyl-1,2,3-thiadiazol-5-yl)carbonyl]piperazin-1-yl}acetyl)piperazine]", "inhibition at 4 µM": "> 90"}
{"smiles": "Cc1ccc(C(C(=O)N2CCN(CC(=O)N3CCN(C4CCC4)CC3)CC2)c2ccccc2)cc1", "note": "(stereo not drawn) [Compound 565, 1-cyclobutyl-4-({4-[(4-methylphenyl)(phenyl)acetyl]piperazin-1-yl}acetyl)piperazine]", "inhibition at 4 µM": "> 90"}
{"smiles": "Cc1ccc(CC(=O)N2CCN(CC(=O)N3CCN(C4CCC4)CC3)CC2)cc1", "note": "[Compound 566, 1-cyclobutyl-4-({4-[(4-methylphenyl)acetyl]piperazin-1-yl}acetyl)piperazine]", "inhibition at 4 µM": "> 90"}
{"smiles": "O=C(Cc1ccc(Oc2ccccc2)cc1)N1CCN(CC(=O)N2CCN(C3CCC3)CC2)CC1", "note": "[Compound 567, 1-cyclobutyl-4-({4-[(4-phenoxyphenyl)acetyl]piperazin-1-yl}acetyl)piperazine]", "inhibition at 4 µM": "> 90"}
{"smiles": "CCc1ccc(C(=O)N2CCN(CC(=O)N3CCN(C4CCC4)CC3)CC2)s1", "note": "[Compound 568, 1-cyclobutyl-4-({4-[(5-ethyl-2-thienyl)carbonyl]piperazin-1-yl}acetyl)piperazine]", "inhibition at 4 µM": "> 90"}
{"smiles": "Cc1c(C(=O)N2CCN(CC(=O)N3CCN(C4CCC4)CC3)CC2)cnn1-c1ccccc1", "note": "[Compound 569, 1-cyclobutyl-4-({4-[(5-methyl-1-phenyl-1H-pyrazol-4-yl)carbonyl]piperazin-1-yl}acetyl)piperazine]", "inhibition at 4 µM": "> 90"}
{"smiles": "Cc1ccc(C(=O)N2CCN(CC(=O)N3CCN(C4CCC4)CC3)CC2)s1", "note": "[Compound 570, 1-cyclobutyl-4-({4-[(5-methyl-2-thienyl)carbonyl]piperazin-1-yl}acetyl)piperazine]", "inhibition at 4 µM": "> 90"}
{"smiles": "CC(Oc1ccc(Cl)cc1Cl)C(=O)N1CCN(CC(=O)N2CCN(C3CCC3)CC2)CC1", "note": "(stereo not drawn) [Compound 572, 1-cyclobutyl-4-({4-[2-(2,4-dichlorophenoxy)propanoyl]piperazin-1-yl}acetyl)piperazine]", "inhibition at 4 µM": "> 90"}
{"target": "T1, chimeric human H3 receptor", "experiment": "Chimeric human H3 receptor screening GTP binding assay (inhibition of histamine-stimulated GTP-gamma35S binding, Example 8)", "format": "biochemical", "conditions": "1 h; Table II, \"+\" in the column headed Ki; assay of Example 8; read-out: percent inhibition of agonist-induced GTP-gammaS binding to H3", "outline": "as §1", "units": {"inhibition at 4 µM": "%"}}
{"smiles": "O=C(CN1CCN(C(=O)c2ccccc2CCc2ccccc2)CC1)N1CCN(C2CCC2)CC1", "note": "[Compound 574, 1-cyclobutyl-4-({4-[2-(2-phenylethyl)benzoyl]piperazin-1-yl}acetyl)piperazine]", "inhibition at 4 µM": "> 90"}
{"smiles": "CCC(C(=O)N1CCN(CC(=O)N2CCN(C3CCC3)CC2)CC1)c1ccc(OC)cc1", "note": "(stereo not drawn) [Compound 575, 1-cyclobutyl-4-({4-[2-(4-methoxyphenyl)butanoyl]piperazin-1-yl}acetyl)piperazine]", "inhibition at 4 µM": "> 90"}
{"smiles": "Cc1ccc(Oc2ccccc2C(=O)N2CCN(CC(=O)N3CCN(C4CCC4)CC3)CC2)cc1", "note": "[Compound 576]", "inhibition at 4 µM": "> 90"}
{"smiles": "CSc1ccccc1C(=O)N1CCN(CC(=O)N2CCN(C3CCC3)CC2)CC1", "note": "[Compound 577, 1-cyclobutyl-4-({4-[2-(methylthio)benzoyl]piperazin-1-yl}acetyl)piperazine]", "inhibition at 4 µM": "> 90"}
{"smiles": "O=C(CN1CCN(C(=O)c2ccccc2OC(F)(F)F)CC1)N1CCN(C2CCC2)CC1", "note": "[Compound 578, 1-cyclobutyl-4-({4-[2-(trifluoromethoxy)benzoyl]piperazin-1-yl}acetyl)piperazine]", "inhibition at 4 µM": "> 90"}
{"smiles": "O=C(CN1CCN(C(=O)c2ccccc2C(F)(F)F)CC1)N1CCN(C2CCC2)CC1", "note": "[Compound 579, 1-cyclobutyl-4-({4-[2-(trifluoromethyl)benzoyl]piperazin-1-yl}acetyl)piperazine]", "inhibition at 4 µM": "> 90"}
{"smiles": "O=C(CN1CCN(C(=O)c2c(F)cccc2C(F)(F)F)CC1)N1CCN(C2CCC2)CC1", "note": "[Compound 582]", "inhibition at 4 µM": "> 90"}
{"smiles": "O=C(CN1CCN(C(=O)c2cccc(C(F)(F)F)c2)CC1)N1CCN(C2CCC2)CC1", "note": "[Compound 588, 1-cyclobutyl-4-({4-[3-(trifluoromethyl)benzoyl]piperazin-1-yl}acetyl)piperazine]", "inhibition at 4 µM": "> 90"}
{"smiles": "Cc1ccccc1C(C(=O)N1CCN(CC(=O)N2CCN(C3CCC3)CC2)CC1)C(C)C", "note": "(stereo not drawn) [Compound 591, 1-cyclobutyl-4-({4-[3-methyl-2-(2-methylphenyl)butanoyl]piperazin-1-yl}acetyl)piperazine]", "inhibition at 4 µM": "> 90"}
{"smiles": "O=C(CN1CCN(C(=O)c2ccc(OC(F)F)cc2)CC1)N1CCN(C2CCC2)CC1", "note": "[Compound 596, 1-cyclobutyl-4-({4-[4-(difluoromethoxy)benzoyl]piperazin-1-yl}acetyl)piperazine]", "inhibition at 4 µM": "> 90"}
{"smiles": "CCSc1ccc(C(=O)N2CCN(CC(=O)N3CCN(C4CCC4)CC3)CC2)cc1", "note": "[Compound 598, 1-cyclobutyl-4-({4-[4-(ethylthio)benzoyl]piperazin-1-yl}acetyl)piperazine]", "inhibition at 4 µM": "> 90"}
{"smiles": "CSc1ccc(C(=O)N2CCN(CC(=O)N3CCN(C4CCC4)CC3)CC2)cc1", "note": "[Compound 600, 1-cyclobutyl-4-({4-[4-(methylthio)benzoyl]piperazin-1-yl}acetyl)piperazine]", "inhibition at 4 µM": "> 90"}
{"smiles": "O=C(CN1CCN(C(=O)c2ccc(C(F)(F)F)cc2)CC1)N1CCN(C2CCC2)CC1", "note": "[Compound 605, 1-cyclobutyl-4-({4-[4-(trifluoromethyl)benzoyl]piperazin-1-yl}acetyl)piperazine]", "inhibition at 4 µM": "> 90"}
{"smiles": "O=C(CN1CCN(C(=O)c2ccc(Oc3cc(Cl)cc(Cl)c3)o2)CC1)N1CCN(C2CCC2)CC1", "note": "[Compound 608, 1-cyclobutyl-4-({4-[5-(3,5-dichlorophenoxy)-2-furoyl]piperazin-1-yl}acetyl)piperazine]", "inhibition at 4 µM": "> 90"}
{"smiles": "O=C(CN1CCN(C(=O)C(c2ccccc2)C2CCCCC2)CC1)N1CCN(C2CCC2)CC1", "note": "(stereo not drawn) [Compound 612, 1-cyclobutyl-4-({4-[cyclohehexyl(phenyl)acetyl]piperazin-1-yl}acetyl)piperazine]", "inhibition at 4 µM": "> 90"}
{"smiles": "O=C(CN1CCN(C(=O)C(c2ccccc2)C2CCCC2)CC1)N1CCN(C2CCC2)CC1", "note": "(stereo not drawn) [Compound 613, 1-cyclobutyl-4-({4-[cyclopentyl(phenyl)acetyl]piperazin-1-yl}acetyl)piperazine]", "inhibition at 4 µM": "> 90"}
{"smiles": "O=C(/C=C/c1ccccc1C(F)(F)F)N1CCN(CC(=O)N2CCN(C3CCC3)CC2)CC1", "note": "[Compound 614, 1-cyclobutyl-4-[(4-{(2E)-3-[2-(trifluoromethyl)phenyl]prop-2-enoyl}piperazin-1-yl)acetyl]piperazine]", "inhibition at 4 µM": "> 90"}
{"smiles": "O=C(/C=C/c1cccc(C(F)(F)F)c1)N1CCN(CC(=O)N2CCN(C3CCC3)CC2)CC1", "note": "[Compound 615, 1-cyclobutyl-4-[(4-{(2E)-3-[3-(trifluoromethyl)phenyl]prop-2-enoyl}piperazin-1-yl)acetyl]piperazine]", "inhibition at 4 µM": "> 90"}
{"smiles": "O=C(/C=C/c1ccc(C(F)(F)F)cc1)N1CCN(CC(=O)N2CCN(C3CCC3)CC2)CC1", "note": "[Compound 616, 1-cyclobutyl-4-[(4-{(2E)-3-[4-(trifluoromethyl)phenyl]prop-2-enoyl}piperazin-1-yl)acetyl]piperazine]", "inhibition at 4 µM": "> 90"}
{"smiles": "Cc1ccc(Oc2ncccc2C(=O)N2CCN(CC(=O)N3CCN(C4CCC4)CC3)CC2)c(C)c1", "note": "[Compound 617, 1-cyclobutyl-4-[(4-{[2-(2,4-dimethylphenoxy)pyridin-3-yl]carbonyl}piperazin-1-yl)acetyl]piperazine]", "inhibition at 4 µM": "> 90"}
{"smiles": "CCSc1ncccc1C(=O)N1CCN(CC(=O)N2CCN(C3CCC3)CC2)CC1", "note": "[Compound 618, 1-cyclobutyl-4-[(4-{[2-(ethylthio)pyridin-3-yl]carbonyl}piperazin-1-yl)acetyl]piperazine]", "inhibition at 4 µM": "> 90"}
{"smiles": "CSc1ncccc1C(=O)N1CCN(CC(=O)N2CCN(C3CCC3)CC2)CC1", "note": "[Compound 619]", "inhibition at 4 µM": "> 90"}
{"smiles": "O=C(CN1CCN(C(=O)c2cccnc2Sc2ccccc2)CC1)N1CCN(C2CCC2)CC1", "note": "[Compound 620, 1-cyclobutyl-4-[(4-{[2-(phenylthio)pyridin-3-yl]carbonyl}piperazin-1-yl)acetyl]piperazine]", "inhibition at 4 µM": "> 90"}
{"smiles": "O=C(Cc1ccccc1OC(F)(F)F)N1CCN(CC(=O)N2CCN(C3CCC3)CC2)CC1", "note": "[Compound 621, 1-cyclobutyl-4-[(4-{[2-(trifluoromethoxy)phenyl]acetyl}piperazin-1-yl)acetyl]piperazine]", "inhibition at 4 µM": "> 90"}
